Data taken from US8648191B2, “Cyclohexyloxy substituted heterocycles, pharmaceutical compositions containing these compounds and processes for preparing them” (Boehringer Ingelheim International GmbH, priority 2008, dated 2014).

molecular target: T1, human EGF-R (Homo sapiens, UniProt P00533); assay: Inhibition of the EGFR-dependent proliferation of a murine haematopoietic cell line expressing human EGF-R, stimulated with EGF; type: cell-based; conditions: 20 ng/ml human EGF, 48 hours at 37° C., Cell Titer 96 AQueous assay
T1 construct: expressed in transfected cells
T1 sequence (P00533 25-1210): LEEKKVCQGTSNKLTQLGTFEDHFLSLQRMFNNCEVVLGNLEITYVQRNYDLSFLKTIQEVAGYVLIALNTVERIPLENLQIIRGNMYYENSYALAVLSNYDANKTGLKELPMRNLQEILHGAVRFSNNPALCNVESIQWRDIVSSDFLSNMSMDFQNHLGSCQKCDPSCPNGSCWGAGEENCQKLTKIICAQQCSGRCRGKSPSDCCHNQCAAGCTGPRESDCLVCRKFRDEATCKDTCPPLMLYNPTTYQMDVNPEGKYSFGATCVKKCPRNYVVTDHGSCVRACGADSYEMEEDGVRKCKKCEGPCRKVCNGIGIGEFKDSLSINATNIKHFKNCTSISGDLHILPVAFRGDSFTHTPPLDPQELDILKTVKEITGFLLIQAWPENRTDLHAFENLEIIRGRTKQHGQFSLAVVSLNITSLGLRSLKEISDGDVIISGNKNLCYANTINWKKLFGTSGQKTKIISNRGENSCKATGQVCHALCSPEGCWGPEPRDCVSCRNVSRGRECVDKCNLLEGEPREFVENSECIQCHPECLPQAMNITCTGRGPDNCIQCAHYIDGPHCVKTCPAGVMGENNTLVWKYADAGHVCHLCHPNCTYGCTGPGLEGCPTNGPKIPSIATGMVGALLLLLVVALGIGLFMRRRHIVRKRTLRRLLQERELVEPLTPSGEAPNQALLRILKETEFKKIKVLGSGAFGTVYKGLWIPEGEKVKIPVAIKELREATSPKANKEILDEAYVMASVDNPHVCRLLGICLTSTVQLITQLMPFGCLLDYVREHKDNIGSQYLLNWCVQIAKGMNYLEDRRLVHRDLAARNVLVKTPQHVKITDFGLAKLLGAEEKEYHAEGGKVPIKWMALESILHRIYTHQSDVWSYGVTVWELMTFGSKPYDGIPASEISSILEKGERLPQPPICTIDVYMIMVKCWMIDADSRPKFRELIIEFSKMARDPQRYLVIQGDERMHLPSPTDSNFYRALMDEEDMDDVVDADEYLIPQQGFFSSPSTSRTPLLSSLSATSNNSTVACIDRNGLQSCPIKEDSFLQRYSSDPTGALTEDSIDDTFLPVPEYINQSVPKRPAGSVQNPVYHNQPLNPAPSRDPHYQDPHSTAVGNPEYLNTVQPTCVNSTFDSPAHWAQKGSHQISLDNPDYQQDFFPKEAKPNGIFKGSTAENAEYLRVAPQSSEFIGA
Experimental: A murine haematopoietic cell line is genetically modified so as to express functional human EGF-R. The proliferation of this cell line can therefore be stimulated by EGF.
The test is carried out as follows:
The cells are cultivated in RPMI/1640 medium. The proliferation is stimulated with 20 ng/ml of human EGF (Promega). To investigate the inhibitory activity of the compounds according to the invention these compounds are dissolved in 100% dimethylsulphoxide (DMSO) and added to the cultures in various dilutions, the maximum DMSO concentration being 1%. The cultures are incubated for 48 hours at 37° C.
In order to determine the inhibitory activity of the compounds according to the invention the relative cell number is measured in O.D. Units using the Cell Titer 96™ AQueous Non-Radioactive Cell Proliferation Assay (Promega). The relative cell number is calculated as a percentage of the control and the concentration of active substance which inhibits the proliferation of the cells by 50% (IC50) is derived therefrom.

In order of rising IC50:
1. COc1cc2ncnc(Nc3cccc(Cl)c3F)c2cc1OC1CCC([C@H]2C(=O)NCCN2C)CC1 (mixture of isomers) [Example 1, cis/trans-(S)-3-{-4-[4-(3-chloro-2-fluoro-phenylamino)-7-methoxy-quinazolin-6-yloxy]-cyclohexyl}-4-methyl-piperazin-2-one]  1 nM
2. COc1cc2ncnc(Nc3cccc(Cl)c3F)c2cc1OC1CCC([C@H]2C(=O)N(C)CCN2C)CC1 (mixture of isomers) [1(3), cis/trans-(S)-3-{4-[4-(3-chloro-2-fluoro-phenylamino)-7-methoxy-quinazolin-6-yloxy]-cyclohexyl}-1,4-dimethyl-piperazin-2-one]  1 nM
3. COc1cc2ncnc(Nc3cccc(Cl)c3F)c2cc1O[C@H]1CC[C@H]([C@@H]2NCCN(C)C2=O)CC1 [1(2), trans-(S)-3-{4-[4-(3-chloro-2-fluoro-phenylamino)-7-methoxy-quinazolin-6-yloxy]-cyclohexyl}-1-methyl-piperazin-2-one]  1 nM
4. COc1cc2ncnc(Nc3cccc(Cl)c3F)c2cc1O[C@H]1CC[C@H]([C@@H]2NCCNC2=O)CC1 [1(1b), trans-(S)-3-{4-[4-(3-chloro-2-fluoro-phenylamino)-7-methoxy-quinazolin-6-yloxy]-cyclohexyl}-piperazin-2-one]  1.4 nM
5. COc1cc2ncnc(Nc3cccc(Cl)c3F)c2cc1O[C@H]1CC[C@H]([C@H]2NCCNC2=O)CC1 [1(5), trans-(R)-3-{4-[4-(3-chloro-2-fluoro-phenylamino)-7-methoxy-quinazolin-6-yloxy]-cyclohexyl}-piperazin-2-one]  1.6 nM
6. COc1cc2ncnc(Nc3cccc(Cl)c3F)c2cc1O[C@H]1CC[C@@H]([C@@H]2NCCNC2=O)CC1 [1(1a), cis-(S)-3-{4-[4-(3-chloro-2-fluoro-phenylamino)-7-methoxy-quinazolin-6-yloxy]-cyclohexyl}-piperazin-2-one]  10 nM
7. COc1cc2ncnc(Nc3cccc(Cl)c3F)c2cc1O[C@H]1CC[C@@H]([C@H]2NCCNC2=O)CC1 [1(4), cis-(R)-3-{4-[4-(3-chloro-2-fluoro-phenylamino)-7-methoxy-quinazolin-6-yloxy]-cyclohexyl}-piperazin-2-one]  12.5 nM
